Measured values: patent US20240368667A1, “RAPID, LABEL-FREE ANTIBIOTIC SUSCEPTIBILITY OF BACTERIA DIRECTLY FROM POSITIVE BLOOD OR BODILY FLUID/CULTURE” (priority 2021, published 2024)
Converted amounts (≈) assume the structure as drawn.

Tests used:
P. aeruginosa 77 = assay: Microbroth dilution MIC with and without sucrose recovery; format: cell-based, Pseudomonas aeruginosa; details: MIC given as multiple of S/I/R
Description: (§1) Microbroth dilution for minimum inhibitory concentrations (MIC) with and without sucrose recovery. To isolate bacteria without sucrose, culture media from positive BacT/alert FA PLUS aerobic culture bottles (bioMérieux, Durham, NC) was serially diluted and plated onto LB agar (Lennox; Sigma-Aldrich, St. Louis, MO). Bacterial suspensions were prepared by resuspending colonies in CAMHB with incubation on a MaxQ 4000 incubator shaker (Thermo Fisher Scientific, Waltham, MA) at 37° C. and ˜225 rpm for 3 hours. Bacteria recovered via Method 2 were diluted 10-fold in CAMHB. Following incubation or sucrose recovery and dilution, bacterial suspensions were adjusted to ˜0.004 OD600 with CAMHB and a 50-μL aliquot distributed to each well of a 96-well plate containing CAMHB with and without clinically relevant antibiotics (2-fold dilution series). Gram-negative plates included: ceftazidime (3rd generation cephalosporin, RPI corp., Mount Prospect, IL), cefepime (4th generation cephalosporin, Chem-Impex Int'l, Wood Dale, IL), meropenem (carbapenem, Tokyo Chemical Industry, Tokyo, Japan), levofloxacin (quinolone, Alfa Aesar, Haverhill, MA), and tobramycin (aminoglycoside, MP Biomedicals LLC, Santa Ana, CA), while S. aureus plates contained: oxacillin (beta-lactam, Sigma-Aldrich, St. Louis, MO), vancomycin (glycopeptide, Santa Cruz Biotechnology, Dallas, TX), erythromycin (macrolide, Sigma-Aldrich, St. Louis, MO), clindamycin ([…]), and ciprofloxacin (fluoroquinolone, Sigma-Aldrich, St. Louis, MO). Antibiotic plates were incubated at 37° C. for 16-20 hours (gram-negative) or 35° C. for 24 hours (S. aureus), at which time, plates were removed from the incubator and visually inspected for bacterial growth. The MIC was set at the lowest antibiotic concentration at which no growth was detected.
(§2) Influence of Sucrose on Bacterial MIC. To rule out the potential effect of sucrose exposure in bacterial antibiotic susceptibility, microbroth dilution studies were performed on bacteria recovered using standard practices (i.e. plating following positive blood culture) and through selective lysis coupled with centrifugation through the sucrose cushion (Method 2).

E. coli 79 = assay: as above; format: cell-based, Escherichia coli; details: MIC given as multiple of S/I/R; for minimum inhibitory concentration (MIC), Standard: E. coli 79 recovered by standard plating
Description: as §1, §2

S. aureus 78 = assay: as above; format: cell-based, Staphylococcus aureus; details: MIC given as multiple of S/I/R; for minimum inhibitory concentration (MIC), Standard: S. aureus 78 recovered by standard plating; for minimum inhibitory concentration (MIC), Sucrose: S. aureus 78 recovered through sucrose (Method 2)
Description: as §1, §2

S. aureus [1] = assay: Broth microdilution (BMD) MIC; format: cell-based, Staphylococcus aureus; details: for MIC: Staphylococcus aureus
Description: as §1

S. aureus [2] = assay: Direct flow cytometric AST (high-throughput flow cytometry, HTFC) of sucrose-recovered bacteria; format: cell-based, Staphylococcus aureus; details: for MIC: Staphylococcus aureus
Description: AST workflow using bacteria recovered directly from positive blood culture. A 1-mL aliquot of bacteria recovered using separation method 2 was diluted 10-fold in CAMHB, the OD600 adjusted to ˜0.01, and a 50 μL aliquot distributed into each well of a 96-well plate containing CAMHB with and without ceftazidime, tobramycin, and either meropenem (E. coli and P. aeruginosa) or oxacillin (S. aureus). Following Clinical and Laboratory Standards Institute (CLSI) guidelines^33, 2% sodium chloride (NaCl) was present in wells containing oxacillin to assist in the detection of methicillin-resistant S. aureus (MRSA). […] To account for observed differences in doubling and lag times, E. coli and P. aeruginosa were incubated for 4 hours at 37° C., while S. aureus was incubated for 9 hours at 35° C. After incubation, antibiotic plates were removed from the incubator and directly stored on ice (i.e. no post-processing) until high-throughput flow cytometry (BD LSRFortessa with HTS-system, BD, Franklin Lakes, NJ). No-antibiotic controls and antibiotic-treated samples were handled identically.
MIC Determination by flow cytometry. Because antibiotic effects are observed in both the position of scatter signatures (morphology changes) and count rates (growth inhibition), a modified count rate, accounting for scatter position, was used to evaluate susceptibility. Briefly, no-antibiotic control populations (triplicate) were pooled, binned, and a convex hull boundary set at 1-standard deviation above the background (not including bins with zero counts) was drawn. […] The overlap ratio, measuring changes in morphology, was then computed by dividing the number of sample events within the no-antibiotic control boundary by the total number of events within the sample. As an increase in count rate attributed to viable bacteria in antibiotic-treated samples is not scientifically meaningful, the fractional overlap was multiplied by the minimum of the control and sample count rates to generate a modified count rate accounting for antibiotic-induced morphological changes. All modified count rates were normalized by the average of the no-antibiotic controls. For automatic MIC determination, normalized count rates corresponding to n (index of predicted MIC), n+1, n+2 were iteratively fit to a linear function with a frameshift of n+1 between iterations (FIGS. 8 and 9). […] A threshold of −0.01 instead of zero was used to mitigate the influence of small fluctuations in normalized count rates on susceptibility determinations.

P. aeruginosa = assay: Influence of sucrose on bacterial growth (OD600); format: cell-based, Pseudomonas aeruginosa; details: P. aeruginosa recovered in 55% sucrose (w/v), undiluted, 37° C. with shaking
Description: (§3) Influence of sucrose on bacterial growth. To determine the effects of sucrose concentration on bacterial growth, bacteria recovered from positive blood cultures following Method 2 were diluted 1-fold (i.e. undiluted), 2-fold, 5-fold, 10-fold, 20-fold, and 100-fold in fresh CAMHB within a 96-well plate. The CAMHB broth inoculated with a fresh overnight culture was used as a positive control. Following dilution, samples were incubated at 37° C. with shaking, and growth was monitored at 15-min intervals via OD600 measurements using a plate reader (Hidex, Turku, Finland). To further investigate the effects of sucrose on bacterial growth, recovered bacteria-sucrose solutions were diluted 10-fold (optimal dilution factor) and growth was compared to control cultures inoculated with the original blood culture, an overnight culture, or colony resuspension without sucrose exposure. Growth (37° C. with shaking) was monitored via OD600 measurements using a Hidex plate reader.
(§4) Impact of sucrose on bacterial growth. […] Recovered bacteria within 55% sucrose (w/v) were directly or 2-fold (27.5%), 5-fold (11%), 10-fold (5.5%), 20-fold (2.75%), and 100-fold (0.55%) diluted in CAMHB and growth monitored on a plate reader set at 37° C. with medium shaking. […]

S. aureus [3] = assay: Influence of sucrose on bacterial growth (OD600); format: cell-based, Staphylococcus aureus; details: S. aureus recovered in 55% sucrose (w/v), undiluted, 37° C. with shaking
Description: as §3, §4

E. coli = assay: Influence of sucrose on bacterial growth (OD600); format: cell-based, Escherichia coli; details: E. coli recovered in 55% sucrose (w/v), undiluted, 37° C. with shaking
Description: as §3, §4

CO/N=C(\C(=O)N[C@@H]1C(=O)N2C(C(=O)[O-])=C(C[N+]3(C)CCCC3)CS[C@H]12)c1csc(N)n1 [Cefepime, cefepime]
minimum inhibitory concentration (MIC), Standard (P. aeruginosa 77; P. aeruginosa 77 recovered by standard plating): ½S
minimum inhibitory concentration (MIC), Sucrose (P. aeruginosa 77; P. aeruginosa 77 recovered through sucrose (Method 2)): ¼S
minimum inhibitory concentration (MIC), Standard (E. coli 79): 2R

CCC[C@@H]1C[C@@H](C(=O)N[C@@H]([C@H]2O[C@H](SC)[C@H](O)[C@@H](O)[C@H]2O)[C@H](C)Cl)N(C)C1 [Clindamycin, clindamycin]
minimum inhibitory concentration (MIC), Standard (S. aureus 78): 4R
minimum inhibitory concentration (MIC), Sucrose (S. aureus 78): 4R

CC[C@H]1OC(=O)[C@H](C)[C@@H](O[C@H]2C[C@@](C)(OC)[C@@H](O)[C@H](C)O2)[C@H](C)[C@@H](O[C@@H]2O[C@H](C)C[C@H](N(C)C)[C@H]2O)[C@](C)(O)C[C@@H](C)C(=O)[C@H](C)[C@@H](O)[C@]1(C)O [Erythromycin, erythromycin]
minimum inhibitory concentration (MIC), Standard (S. aureus 78): 4R
minimum inhibitory concentration (MIC), Sucrose (S. aureus 78): 2R

C[C@H]1COc2c(N3CCN(C)CC3)c(F)cc3c(=O)c(C(=O)O)cn1c23 [Levofloxacin, levofloxacin]
minimum inhibitory concentration (MIC), Standard (E. coli 79): >4R
minimum inhibitory concentration (MIC), Sucrose (E. coli 79; E. coli 79 recovered through sucrose (Method 2)): 4R

Cc1onc(-c2ccccc2)c1C(=O)N[C@@H]1C(=O)N2[C@@H]1SC(C)(C)[C@@H]2C(=O)O [Oxacillin, oxacillin]
minimum inhibitory concentration (MIC), Standard (S. aureus 78): 4R
minimum inhibitory concentration (MIC), Sucrose (S. aureus 78): 4R
susceptibility classification, BMD (S. aureus [1]; S. aureus ATCC25923): (MSSA)
susceptibility classification, BMD (S. aureus [1]; S. aureus ATCC29213): (MSSA)
susceptibility classification, BMD (S. aureus [1]; S. aureus ATCC43300): (MRSA)
susceptibility classification, BMD (S. aureus [1]; S. aureus Blood Culture A): (MSSA)
susceptibility classification, BMD (S. aureus [1]; S. aureus Blood Culture B): (MRSA)
susceptibility classification, BMD (S. aureus [1]; S. aureus NRS382): (MRSA)
susceptibility classification, BMD (S. aureus [1]; S. aureus NRS385): (MRSA)
MIC (S. aureus [1]; ATCC25923, read-out: Minimum inhibitory concentration, BMD, S. aureus ATCC25923): 0.125 µg/mL (≈ 0.311 µM)
MIC (S. aureus [1]; ATCC29213, read-out: Minimum inhibitory concentration, BMD, S. aureus ATCC29213): 0.25 µg/mL (≈ 0.623 µM)
MIC (S. aureus [1]; ATCC43300, read-out: Minimum inhibitory concentration, BMD, S. aureus ATCC43300): 16 µg/mL (≈ 39.9 µM)
MIC (S. aureus [1]; S. aureus NRS382, read-out: Minimum inhibitory concentration, BMD): > 16 µg/mL
MIC (S. aureus [1]; S. aureus NRS385, read-out: Minimum inhibitory concentration, BMD): > 16 µg/mL
MIC (S. aureus [1]; read-out: Minimum inhibitory concentration, BMD, S. aureus Blood Culture A): 0.125 µg/mL (≈ 0.311 µM)
MIC (S. aureus [1]; read-out: Minimum inhibitory concentration, BMD, S. aureus Blood Culture B): > 16 µg/mL
susceptibility classification, HTFC (S. aureus [2]; S. aureus ATCC25923, oxacillin 9 hours (35° C.)): (MSSA)
susceptibility classification, HTFC (S. aureus [2]; S. aureus ATCC29213, oxacillin 9 hours (35° C.)): (MSSA)
susceptibility classification, HTFC (S. aureus [2]; S. aureus ATCC43300, oxacillin 9 hours (35° C.)): (MRSA)
susceptibility classification, HTFC (S. aureus [2]; S. aureus Blood Culture A, oxacillin 9 hours (35° C.)): (MSSA)
susceptibility classification, HTFC (S. aureus [2]; S. aureus Blood Culture B, oxacillin 9 hours (35° C.)): (MRSA)
susceptibility classification, HTFC (S. aureus [2]; S. aureus NRS382, oxacillin 9 hours (35° C.)): MRSA
susceptibility classification, HTFC (S. aureus [2]; S. aureus NRS385, oxacillin 9 hours (35° C.)): MRSA
MIC (S. aureus [2]; 9 h, read-out: Minimum inhibitory concentration, HTFC, S. aureus Blood Culture A, oxacillin 9 hours (35° C.)): 0.125 µg/mL (≈ 0.311 µM)
MIC (S. aureus [2]; 9 h, read-out: Minimum inhibitory concentration, HTFC, S. aureus Blood Culture B, oxacillin 9 hours (35° C.)): 4 µg/mL (≈ 9.96 µM)
MIC (S. aureus [2]; ATCC25923, 9 h, read-out: Minimum inhibitory concentration, HTFC, S. aureus ATCC25923, oxacillin 9 hours (35° C.)): 0.25 µg/mL (≈ 0.623 µM)
MIC (S. aureus [2]; ATCC29213, 9 h, read-out: Minimum inhibitory concentration, HTFC, S. aureus ATCC29213, oxacillin 9 hours (35° C.)): 2 µg/mL (≈ 4.98 µM)
MIC (S. aureus [2]; ATCC43300, 9 h, read-out: Minimum inhibitory concentration, HTFC, S. aureus ATCC43300, oxacillin 9 hours (35° C.)): > 4 µg/mL
MIC (S. aureus [2]; S. aureus NRS382, oxacillin 9 hours (35° C.), read-out: Minimum inhibitory concentration, HTFC): > 4 µg/mL
MIC (S. aureus [2]; S. aureus NRS385, oxacillin 9 hours (35° C.), read-out: Minimum inhibitory concentration, HTFC): > 4 µg/mL

CN[C@H](CC(C)C)C(=O)N[C@H]1C(=O)N[C@@H](CC(N)=O)C(=O)N[C@H]2C(=O)N[C@H]3C(=O)N[C@H](C(=O)N[C@H](C(=O)O)c4cc(O)cc(O)c4-c4cc3ccc4O)[C@H](O)c3ccc(c(Cl)c3)Oc3cc2cc(c3O[C@@H]2O[C@H](CO)[C@@H](O)[C@H](O)[C@H]2O[C@H]2C[C@](C)(N)[C@H](O)[C@H](C)O2)Oc2ccc(cc2Cl)[C@H]1O [Vancomycin, vancomycin]
minimum inhibitory concentration (MIC), Standard (S. aureus 78): ¼S
minimum inhibitory concentration (MIC), Sucrose (S. aureus 78): ⅛S

OC[C@H]1O[C@@](CO)(O[C@H]2O[C@H](CO)[C@@H](O)[C@H](O)[C@H]2O)[C@@H](O)[C@@H]1O [sucrose, D (+)-sucrose]
bacterial growth (OD600) (P. aeruginosa): inhibiting growth completely
bacterial growth (OD600) (S. aureus [3]): inhibiting growth completely
bacterial growth (OD600) (E. coli): inhibiting growth completely
